Results as given in patent US8143408B2, “N-(8-heteroaryltetrahydronaphtalene-2yl) or N-(5-heteroarylchromane-3-yl) carboxamide derivatives for the treatment of pain” (AstraZeneca AB, priority 2007, dated 2012).

These compounds were tested against T1, Nav1.7 voltage-gated sodium channel (Homo sapiens, UniProt Q15858) (assay: Whole-cell voltage clamp electrophysiology assay). Conditions: cells stably expressing the voltage-gated sodium channel of interest.
T1 construct: Gene(s) encoding the full-length protein of the voltage-gated sodium channel of interest are cloned and expressed; expressed in transfected cells
T1 sequence (Q15858 whole entry): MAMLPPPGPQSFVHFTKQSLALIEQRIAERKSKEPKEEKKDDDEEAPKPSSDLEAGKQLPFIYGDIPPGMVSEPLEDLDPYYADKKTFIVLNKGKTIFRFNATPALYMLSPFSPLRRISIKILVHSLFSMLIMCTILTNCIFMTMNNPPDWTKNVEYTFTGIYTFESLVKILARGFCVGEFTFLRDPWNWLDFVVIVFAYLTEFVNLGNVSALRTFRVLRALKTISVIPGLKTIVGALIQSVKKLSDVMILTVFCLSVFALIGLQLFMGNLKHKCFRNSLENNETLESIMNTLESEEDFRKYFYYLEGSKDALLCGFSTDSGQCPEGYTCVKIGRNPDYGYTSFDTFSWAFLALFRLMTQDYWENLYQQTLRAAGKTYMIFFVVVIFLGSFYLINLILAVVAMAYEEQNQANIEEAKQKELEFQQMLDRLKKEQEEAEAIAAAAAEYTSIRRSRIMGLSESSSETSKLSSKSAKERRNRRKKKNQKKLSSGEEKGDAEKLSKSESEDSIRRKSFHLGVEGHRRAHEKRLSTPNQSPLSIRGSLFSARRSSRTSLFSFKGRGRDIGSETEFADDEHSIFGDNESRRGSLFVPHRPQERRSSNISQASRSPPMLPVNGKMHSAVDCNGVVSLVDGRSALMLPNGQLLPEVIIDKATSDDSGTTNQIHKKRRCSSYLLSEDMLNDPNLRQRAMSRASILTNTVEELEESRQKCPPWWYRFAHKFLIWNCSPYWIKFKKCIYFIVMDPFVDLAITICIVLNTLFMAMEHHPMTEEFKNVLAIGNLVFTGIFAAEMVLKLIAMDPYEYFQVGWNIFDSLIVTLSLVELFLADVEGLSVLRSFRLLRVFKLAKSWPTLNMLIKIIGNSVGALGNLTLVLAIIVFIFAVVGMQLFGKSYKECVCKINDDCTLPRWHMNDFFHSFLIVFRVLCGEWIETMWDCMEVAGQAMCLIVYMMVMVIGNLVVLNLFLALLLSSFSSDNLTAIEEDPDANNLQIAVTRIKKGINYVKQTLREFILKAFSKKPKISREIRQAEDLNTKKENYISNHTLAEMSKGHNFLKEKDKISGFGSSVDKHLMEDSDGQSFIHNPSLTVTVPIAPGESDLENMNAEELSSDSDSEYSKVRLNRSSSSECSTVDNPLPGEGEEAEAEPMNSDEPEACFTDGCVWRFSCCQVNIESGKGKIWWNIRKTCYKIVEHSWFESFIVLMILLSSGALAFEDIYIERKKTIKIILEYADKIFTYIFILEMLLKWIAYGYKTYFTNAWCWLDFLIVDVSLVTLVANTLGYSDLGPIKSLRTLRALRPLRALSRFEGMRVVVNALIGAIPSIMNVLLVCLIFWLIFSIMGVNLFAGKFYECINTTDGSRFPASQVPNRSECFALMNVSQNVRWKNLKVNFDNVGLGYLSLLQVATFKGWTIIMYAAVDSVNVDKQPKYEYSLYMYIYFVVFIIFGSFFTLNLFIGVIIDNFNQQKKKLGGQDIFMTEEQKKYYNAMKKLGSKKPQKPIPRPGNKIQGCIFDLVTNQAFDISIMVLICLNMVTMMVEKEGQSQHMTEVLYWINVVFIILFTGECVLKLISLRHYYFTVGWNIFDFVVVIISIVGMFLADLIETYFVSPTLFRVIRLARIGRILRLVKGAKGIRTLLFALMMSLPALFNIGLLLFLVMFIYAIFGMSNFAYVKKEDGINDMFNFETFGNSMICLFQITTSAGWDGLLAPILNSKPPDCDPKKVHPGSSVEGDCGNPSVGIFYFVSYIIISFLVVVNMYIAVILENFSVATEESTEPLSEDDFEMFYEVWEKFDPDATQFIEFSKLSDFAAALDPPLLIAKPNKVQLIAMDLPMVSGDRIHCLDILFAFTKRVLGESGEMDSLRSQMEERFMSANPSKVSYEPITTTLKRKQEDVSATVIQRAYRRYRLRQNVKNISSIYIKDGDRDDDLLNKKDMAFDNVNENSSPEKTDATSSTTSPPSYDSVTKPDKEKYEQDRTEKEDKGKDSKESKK
Format: cell-based
Description: Gene(s) encoding the full-length protein of the voltage-gated sodium channel of interest are cloned and expressed under a suitable promoter in a suitable cell line, as well known in the art. […] Suitable screening assays are as follows.
Electrophysiological studies can be performed using automated patch-clamp electrophysiology platforms, like IonWorks HT, IonWorks Quattro, PatchXpress, QPatch or any other suitable platform. […] Suitable extracellular and intracellular buffer for such experiments are applied according to the instructions given by the manufacturer of the automated patch-clamp platforms. Cells that express the voltage-gated sodium channel protein of interest are exposed to drugs through the pipetting system integrated in the platforms. A suitable voltage stimulus protocol is used to activate the voltage-gated sodium channel proteins of interest through depolarisation from a defined holding potential.
Electrophysiological studies can also be performed using the whole cell configuration of the standard patch clamp technique. In this assay, cells that express the voltage-gated sodium channel protein of interest are exposed to the drugs by conventional microperfusion systems and a suitable voltage stimulus protocol is used to activate the voltage-gated sodium channels.

| IC50 [nM] | Compound |
| --- | --- |
| 50.1 | Cc1ncc(-c2cccc3c2C[C@H](NC(=O)c2ccc(OCCC(F)(F)F)nc2)CO3)cn1 [Example 61, N-[(3S)-5-(2-methylpyrimidin-5-yl)-3,4-dihydro-2H-chromen-3-yl]-6-(3,3,3-trifluoropropoxy)nicotinamide] |
| 251 | CC(C)Oc1ccc(C(=O)N[C@@H]2COc3cccc(-c4ccnc(F)c4)c3C2)cn1 [Example 62, N-[(3S)-5-(2-fluoropyridin-4-yl)-3,4-dihydro-2H-chromen-3-yl]-6-isopropoxynicotinamide] |
| 79.4 | O=C(N[C@@H]1COc2cccc(-c3ccnc(F)c3)c2C1)c1ccc(OCCC(F)(F)F)nc1 [Example 63, N-[(3S)-5-(2-fluoropyridin-4-yl)-3,4-dihydro-2H-chromen-3-yl]-6-(3,3,3-trifluoropropoxy)nicotinamide] |
| 5010 | O=C(N[C@@H]1COc2cccc(-c3cccnc3)c2C1)c1ccc2ccccc2n1 [Example 65, N-[(3S)-5-pyridin-3-yl-3,4-dihydro-2H-chromen-3-yl]quinoline-2-carboxamide] |
| 158 | Cc1cnccc1-c1cccc2c1C[C@H](NC(=O)c1ccc(OC(C)C)nc1)CO2 [Example 66, 6-isopropoxy-N-[(3S)-5-(3-methylpyridin-4-yl)-3,4-dihydro-2H-chromen-3-yl]nicotinamide] |
| 501 | CC(C)Oc1ccc(C(=O)N[C@@H]2COc3cccc(-c4ccc(F)nc4)c3C2)cn1 [Example 67, N-[(3S)-5-(6-fluoropyridin-3-yl)-3,4-dihydro-2H-chromen-3-yl]-6-isopropoxynicotinamide] |
| 100 | Cc1cnccc1-c1cccc2c1C[C@H](NC(=O)c1ccc(OCCC(F)(F)F)nc1)CO2 [Example 68, N-[(3S)-5-(3-methylpyridin-4-yl)-3,4-dihydro-2H-chromen-3-yl]-6-(3,3,3-trifluoropropoxy)nicotinamide] |
| 79.4 | O=C(N[C@@H]1COc2cccc(-c3ccc(F)nc3)c2C1)c1ccc(OCCC(F)(F)F)nc1 [Example 69, N-[(3S)-5-(6-fluoropyridin-3-yl)-3,4-dihydro-2H-chromen-3-yl]-6-(3,3,3-trifluoropropoxy)nicotinamide] |
| 1000 | COc1ccc(-c2ccc(C(=O)N[C@@H]3COc4cccc(-c5ccncc5)c4C3)cn2)c(OC)c1 [Example 70, 6-(2,4-dimethoxyphenyl)-N-[(3S)-5-pyridin-4-yl-3,4-dihydro-2H-chromen-3-yl]nicotinamide] |
| 2000 | COc1ncccc1-c1cccc2c1C[C@H](NC(=O)c1ccc(OC(C)C)nc1)CO2 [Example 71, 6-isopropoxy-N-[(3S)-5-(2-methoxypyridin-3-yl)-3,4-dihydro-2H-chromen-3-yl]nicotinamide] |
| 501 | COc1ncccc1-c1cccc2c1C[C@H](NC(=O)c1ccc(OCCC(F)(F)F)nc1)CO2 [Example 72, N-[(3S)-5-(2-methoxypyridin-3-yl)-3,4-dihydro-2H-chromen-3-yl]-6-(3,3,3-trifluoropropoxy)nicotinamide] |
| 3980 | COc1ncc(-c2cccc3c2C[C@@H](NC(=O)c2ccc(OC(C)C)nc2)CC3)cn1 [Example 73, 6-isopropoxy-N-[(2S)-8-(2-methoxypyrimidin-5-yl)-1,2,3,4-tetrahydronaphthalen-2-yl]nicotinamide] |
| 251 | CC(C)Oc1ccc(C(=O)N[C@@H]2CCc3cccc(-c4cccnc4F)c3C2)cn1 [Example 74, N-[(2R)-8-(2-fluoropyridin-3-yl)-1,2,3,4-tetrahydronaphthalen-2-yl]-6-isopropoxynicotinamide] |
| 631 | O=C(N[C@@H]1CCc2cccc(-c3ccnnc3)c2C1)c1ccc(OCCC(F)(F)F)nc1 [Example 75, N-[(2R)-8-pyridazin-4-yl-1,2,3,4-tetrahydronaphthalen-2-yl]-6-(3,3,3-trifluoropropoxy)nicotinamide] |
| 398 | COc1ccc(-c2cccc3c2C[C@H](NC(=O)c2ccc(OC(C)C)nc2)CO3)cn1 [Example 76, 6-isopropoxy-N-[(3S)-5-(6-methoxypyridin-3-yl)-3,4-dihydro-2H-chromen-3-yl]nicotinamide] |
| 126 | COc1ccc(-c2cccc3c2C[C@H](NC(=O)c2ccc(OCCC(F)(F)F)nc2)CO3)cn1 [Example 77, N-[(3S)-5-(6-methoxypyridin-3-yl)-3,4-dihydro-2H-chromen-3-yl]-6-(3,3,3-trifluoropropoxy)nicotinamide] |
| 3160 | CC(C)Oc1ccc(C(=O)N[C@@H]2CCc3cccc(-c4ccnnc4)c3C2)cn1 [Example 78, 6-isopropoxy-N-[(2R)-8-pyridazin-4-yl-1,2,3,4-tetrahydronaphthalen-2-yl]nicotinamide] |

| IC50 [nM] | Compound |
| --- | --- |
| 1260 | COc1cnc(C(=O)N[C@@H]2COc3cccc(-c4cnc(OC)c(F)c4)c3C2)cn1 [Example 79, N-[(3S)-5-(5-fluoro-6-methoxypyridin-3-yl)-3,4-dihydro-2H-chromen-3-yl]-5-methoxypyrazine-2-carboxamide] |
| 2510 | O=C(N[C@@H]1COc2cccc(-c3ccnnc3)c2C1)c1ccc(OCC(F)(F)F)nc1 [Example 80, N-[(3S)-5-pyridazin-4-yl-3,4-dihydro-2H-chromen-3-yl]-6-(2,2,2-trifluoroethoxy)nicotinamide] |
| 398 | O=C(N[C@@H]1COc2cccc(-c3ccnnc3)c2C1)c1ccc(OCCC(F)(F)F)nc1 [Example 81, N-[(3S)-5-pyridazin-4-yl-3,4-dihydro-2H-chromen-3-yl]-6-(3,3,3-trifluoropropoxy)nicotinamide] |
| 2510 | COc1ncc(-c2cccc3c2C[C@H](NC(=O)c2ccc(OC(C)C)nc2)CC3)cn1 [Example 82, 6-isopropoxy-N-[(2R)-8-(2-methoxypyrimidin-5-yl)-1,2,3,4-tetrahydronaphthalen-2-yl]nicotinamide] |
| 5010 | COc1cnc(C(=O)N[C@@H]2COc3cccc(-c4cnc(OC)nc4)c3C2)cn1 [Example 83, 5-methoxy-N-[(3S)-5-(2-methoxypyrimidin-5-yl)-3,4-dihydro-2H-chromen-3-yl]pyrazine-2-carboxamide] |
| 398 | COc1ncc(-c2cccc3c2C[C@H](NC(=O)c2ccc(OCCC(F)(F)F)nc2)CC3)cn1 [Example 84, N-[(2R)-8-(2-methoxypyrimidin-5-yl)-1,2,3,4-tetrahydronaphthalen-2-yl]-6-(3,3,3-trifluoropropoxy)nicotinamide] |
| 501 | COc1ncc(-c2cccc3c2C[C@H](NC(=O)c2ccc(OCC(F)(F)F)nc2)CC3)cn1 [Example 85, N-[(2R)-8-(2-methoxypyrimidin-5-yl)-1,2,3,4-tetrahydronaphthalen-2-yl]-6-(2,2,2-trifluoroethoxy)nicotinamide] |
| 200 | O=C(N[C@@H]1CCc2cccc(-c3cccnc3F)c2C1)c1ccc(OCC(F)(F)F)nc1 [Example 87, N-[(2R)-8-(2-fluoropyridin-3-yl)-1,2,3,4-tetrahydronaphthalen-2-yl]-6-(2,2,2-trifluoroethoxy)nicotinamide] |
| 398 | COc1ncc(-c2cccc3c2C[C@H](NC(=O)c2ccc(OCC(F)(F)F)nc2)CO3)cc1F [Example 88, N-[(3S)-5-(5-fluoro-6-methoxypyridin-3-yl)-3,4-dihydro-2H-chromen-3-yl]-6-(2,2,2-trifluoroethoxy)nicotinamide] |
| 2000 | COc1ncc(-c2cccc3c2C[C@H](NC(=O)c2cnc(OCC(F)(F)F)nc2C)CO3)cn1 [Example 89, N-[(3S)-5-(2-methoxypyrimidin-5-yl)-3,4-dihydro-2H-chromen-3-yl]-4-methyl-2-(2,2,2-trifluoroethoxy)pyrimidine-5-carboxamide] |
| 1580 | COc1ncc(-c2cccc3c2C[C@H](NC(=O)c2cnc(OCC(F)(F)F)nc2C)CC3)cn1 [Example 90, N-[(2R)-8-(2-methoxypyrimidin-5-yl)-1,2,3,4-tetrahydronaphthalen-2-yl]-4-methyl-2-(2,2,2-trifluoroethoxy)pyrimidine-5-carboxamide] |
| 79.4 | O=C(N[C@@H]1COc2cccc(-c3ccc4nccn4c3)c2C1)c1ccc(OCC(F)(F)F)nc1 [Example 91, N-[(3S)-5-imidazo[1,2-a]pyridin-6-yl-3,4-dihydro-2H-chromen-3-yl]-6-(2,2,2-trifluoroethoxy)nicotinamide] |
| 5010 | COc1ncc(-c2cccc3c2C[C@H](NC(=O)c2cnc(OC(C)C)nc2C)CO3)cn1 [Example 92, 2-isopropoxy-N-[(3S)-5-(2-methoxypyrimidin-5-yl)-3,4-dihydro-2H-chromen-3-yl]-4-methylpyrimidine-5-carboxamide] |
| 631 | CCOc1ncc(-c2cccc3c2C[C@H](NC(=O)c2ccc(OCC(F)(F)F)nc2)CO3)cn1 [Example 93, N-[(3S)-5-(2-ethoxypyrimidin-5-yl)-3,4-dihydro-2H-chromen-3-yl]-6-(2,2,2-trifluoroethoxy)nicotinamide] |
| 794 | COc1ncc(-c2cccc3c2C[C@H](NC(=O)c2ccc(OC4CCC4)nc2)CO3)cc1F [Example 94, 6-(cyclobutyloxy)-N-[(3S)-5-(5-fluoro-6-methoxypyridin-3-yl)-3,4-dihydro-2H-chromen-3-yl]nicotinamide] |
| 158 | CCc1ncc(-c2cccc3c2C[C@H](NC(=O)c2ccc(OCC(F)(F)F)nc2)CO3)cn1 [Example 95, N-[(3S)-5-(2-ethylpyrimidin-5-yl)-3,4-dihydro-2H-chromen-3-yl]-6-(2,2,2-trifluoroethoxy)nicotinamide] |
| 50.1 | O=C(N[C@@H]1COc2cccc(-c3cnc(C4CC4)nc3)c2C1)c1ccc(OCCCF)nc1 [Example 96, N-[(3S)-5-(2-cyclopropylpyrimidin-5-yl)-3,4-dihydro-2H-chromen-3-yl]-6-(3-fluoropropoxy)nicotinamide] |
